Laboratory results reported in publication PMC6563099, “Novel Thienopyrimidine Derivative, RP-010, Induces β-Catenin Fragmentation and Is Efficacious against Prostate Cancer Cells” (Cancers, 2019).
Read-outs that look alike come from different tables or passages of the source.

What was measured:
Format in all cases: cell-based
PC-3 [1] = assay: Transwell migration assay, PC-3; conditions: 24 h
Experimental: The assay was done as previously described. The effect of RP-010, (0.5, 1 or 2 µM) on the migration of PC cells was tested using 24 trans-well inserts with an […] pore size. The addition of the insert to the well forms two chambers (upper and lower), where the upper chamber was used to grow the cells on the porous membrane. The lower chamber was filled with 600-μL cell-free DMEM medium. 200-μL of the cell suspension was added to each insert, and cells allowed to attach for 1 h. The test compound was added in different concentrations and incubated with the cells for 24 h. […] Finally, the remaining migrated cells were fixed by methanol, and stained with 0.1% crystal violet dye and counted with an EVOS microscope. The number of migrated cells was counted for the cultures incubated with vehicle or RP-010.

PC-3 [2] = assay: Cell cycle analysis (PI, flow cytometry), PC-3; conditions: 0.5, 1 or 2 µM
Experimental: (§1) The effect of RP-010 on the cell cycle phases and function was determined using cell cycle analysis with PI staining, followed by flow cytometry. The cells were incubated with either vehicle or RP-010 (0.5, 1 or 2 µM) for 24 h. After incubation overnight, the cells were collected, washed and resuspended as an ice-cold PBS suspension. The DNA was stained with PI for at least 15 min on ice. A FACS Calibur flow cytometer from BD Biosciences (San Jose, CA, USA) was used to determine the distribution of the cells following incubation with vehicle or RP-010. Finally, the data were viewed and analysed using FlowJo v10.2 software from FlowJo LLC (Ashland, OR, USA).

CRL-1459 = assay: MTT cytotoxicity assay, CRL-1459 normal colon epithelial cells; conditions: Homo sapiens, normal colon epithelial cell line, means ± SDs of three independent experiments, read-out: IC50 ± SD, Non-Prostate Cells, CRL-1459
Experimental: (§2) All the cells were cultured as adherent monolayers in culture flasks, and were used to determine the anti-cancer efficacy of RP-010. DMEM supplemented with 4.5 g of glucose, 10% fetal bovine serum (FBS) and 1% penicillin/streptomycin, was used to augment cell growth. Finally, the cells were incubated and grown in a humidified incubator containing 5% CO2 at 37 °C [50]. […] Cells were obtained from frozen stocks and cell passaging (up to P4) was performed at 80% cell confluency, using PBS and trypsin + 2.2-mM EDTA.
(§3) MTT assays were used to determine the cytotoxicity of the RP compounds, to PC cell lines, as previously described.

DU145 [3] = assay: DAPI staining of nuclear changes, DU145
Experimental: The nuclear changes in DU145 and PC-3 cells lines produced by RP-010 (1, 2 and 4 µM) incubation at 24 or 48 h were determined using DAPI staining. The cells were seeded on culture cover glasses in 6-well plates, and allowed to grow overnight. The cells were then incubated with RP-010, for an additional 24 h, at 37 °C. The incubated cells were fixed with 4% paraformaldehyde, followed by permeabilization with 1× PBS/0.3% Triton X-100 for 25 min. Finally, DAPI stain was added, and cells were photographed using the EVOS microscope.

PC-3 [4] = assay: MTT cytotoxicity assay, PC-3 prostate cancer cells; conditions: MTT assay, means ± SDs of three independent experiments, read-out: IC50 ± SD, Prostate Cancer Cells, PC-3
Experimental: as §2, §3

DU145 [5] = assay: Oxidative stress (H2DCFDA fluorescence), DU145; conditions: 0.5, 1, 2 or 4 µM, 24 h, vs vehicle
Experimental: The compound 2′,7′-dichlorofluorescin (H2DCFDA) was used to detect changes in the oxidative stress status, as previously described in PC-3 and DU145. […] The cells were then washed 3 times with 1× PBS for 5 min each. The level of reactive oxygen species was then measured, based on the fluorescence level of oxidized H2DCFDA dye (excitation at 485 nm and emission at 535 nm), using an EVOS digital fluorescent microscope at 40×.

PC-3 [6] = assay: Wound healing assay, PC-3; conditions: 0.5, 1, 2 or 4 µM, 12-24 h, vs vehicle
Experimental: This assay was conducted using DU145 and PC-3 cells as previously described. Upon confluence, 200 μL sterile tips were used to create a wound by gently scratching the complete cell monolayer. Sterile PBS was used to wash the cells several times to remove any floating cells. Different concentrations of the test compound were prepared in the culture media and added immediately after wound formation. The closure of the wound was observed by taking pictures at different time points by the EVOS microscope (Thermo Fisher Scientific, Wayne, MI, USA). Finally, the area of the wounds, at different time points, was calculated using Image J software (NIH, Bethesda, MD, USA).

DU145 [7] = assay: Cell cycle analysis (PI, flow cytometry), DU145; conditions: vs vehicle
Experimental: as §1

[8] = tested on: Wnt/β-catenin signaling pathway proteins in DU145 cells; assay: Western analysis of Wnt/β-catenin signaling pathway proteins, DU145
Experimental: DU145 cells were incubated with RP-010 ((1 or 2 µM) for 24 h. Thereafter, the cells were subjected to a two-step lysis process to extract and separate the cytosolic and the nuclear proteins, as previously described. Next, protein separation for both cytosolic and nuclear proteins was achieved by electrophoresing the samples through acrylamide SDS-PAGE gels, followed by transfer to a PVDF membrane. The PVDF membrane was then incubated overnight with the following primary antibodies: rabbit α-tubulin, 1:4000 dilution, rabbit BAX (1:1000), rabbit BAK (1:1000), rabbit cytochrome c (1:1000), rabbit PARP (1:5000), rabbit β-Catenin (1:4000), rabbit DVL3 (1:4000), rabbit LRP-6 (1:1000), rabbit P-LRP-6 (1:1000), rabbit c-Myc (1: 4000), rabbit cyclin B1 (1:2000), rabbit Wnt 5a (1:1000), rabbit naked 1 and naked 2 (1:1000), mouse E-cadherin (1:4000), mouse N-cadherin (1:4000), mouse β-actin (1:5000) and rabbit histone (1:3000). Finally, protein expression levels were determined as described previously. In the Figure 3, Figure 5 and Figure S8, the protein blots above β-actin were cytosolic lysates, while all the proteins below β-actin and above histones (loading controls) were nuclear lysates.

[9] = DU145, 1 or 2 μM, 24 h, p < 0.01

COc1ccc(-c2nc3sc4c(c3c(=O)[nH]2)CCCC4)cc1 [RP10]
Transwell migration (PC-3 [1]; 0.5 μM): not significantly altered
Transwell migration (PC-3 [1]; 1 or 2 μM, p < 0.05): significantly decreased
Percentage of cells in G1 (PC-3 [2]): significant decrease
Percentage of cells in the G2 phase (PC-3 [2]): significant increase
IC50 (CRL-1459): 73000 ± 5300 nM
Nuclear morphology (DAPI) (DU145 [3]; 1 µM, 24 h): produced multinucleated cells
Nuclear morphology (DAPI) (DU145 [3]; 1, 2 or 4 µM, 48 h): primarily produced early stage apoptotic nuclear morphology
Nuclear morphology (DAPI) (DU145 [3]; 2 or 4 µM, 24 h): significantly increased numbers of highly condensed, fragmented nuclear chromatin
IC50 (PC-3 [4]; listed as RP-010): < 1000 nM
IC50 (PC-3 [4]): 300 ± 100 nM
Reactive oxygen species (ROS) level (DU145 [5]): significantly higher levels
Wound healing (cell migration) (PC-3 [6]): significantly decreasing wound healing
Cell cycle distribution, G1 phase (DU145 [7]; 0.5, 1 or 2 µM): significant shift from G1 phase
Cell cycle distribution, G2 phase (DU145 [7]; 1 or 2 µM, p < 0.05): significantly accumulated in the G2 phase
Expression levels of N-cadherin ([8]; 1 and 2 µM): did not significantly alter
Accumulation of lower molecular weight β-catenin fragments (P3, P4) ([8]; DU145, 1 or 2 μM, 24 h): increased the accumulation
Fragmentation of full-length β-catenin (p92) into lower molecular weight fragments (≈70 kDa) ([8]; DU145, 1 or 2 μM, 24 h): significant fragmentation
Levels of E-cadherin ([8]; DU145, 1 or 2 μM, 24 h): did not significantly alter
Levels of Wnt 5a ([8]; DU145, 1 or 2 μM, 24 h): no significant change
Levels of nuclear c-Myc ([8]; DU145, 1 or 2 μM, 24 h): significantly decreased
Levels of total active β-catenin ([8]; DU145, 1 or 2 μM, 24 h): significant decrease
Nuclear levels of Naked 1 ([8]; DU145, 1 or 2 μM, 24 h): significantly increased
Nuclear levels of Naked 2 ([8]; DU145, 1 or 2 μM, 24 h): significantly increased
Nuclear levels of cyclin B1 ([8]; DU145, 1 or 2 μM, 24 h): not significantly altered
Levels of cytosolic Naked 1 ([8]; DU145, 1 or 2 μM, 24 h, p < 0.001): significantly decreased
Cytosolic levels of cyclin B1 [8, 9]: decreased significantly
Levels of DVL3 [8, 9]: significantly decreased
Levels of cytosolic Naked 2 [8, 9]: significantly decreased
Levels of phosphorylated LRP-6 (P-LRP-6) [8, 9]: significantly decreased
Levels of LRP-6 ([8]; DU145, 1 or 2 μM, 24 h, p < 0.05): significantly decreased
